{
  "source": "paper PMC10033419",
  "about": "“Blocking NS3–NS4B interaction inhibits dengue virus in non-human primates” (Nature, 2023)",
  "system": "DENV-1/45AZ5",
  "experiment": "NHP DENV-1 study, serum viral RNA RT-qPCR",
  "assay_type": "in vivo, rhesus macaques",
  "details": "for qRT-PCR Assay Average GE/mL: LOQ 100 GE/reaction",
  "experimental": "WRAIR is fully accredited by AAALAC International.\nSerum samples from macaques were checked for the presence of DENV-1 RNA. Viral RNA for RT–qPCR was extracted from 100–200 µl of serum using the QIAcube instrumentation and the QIAGEN Viral RNA extraction kits. The primers and fluorogenic probes used in the RT–qPCR assays have been previously described[63],[64]. DENV-1 RNA was detected in a 25 µl reaction containing 5 µl of extracted RNA sample, 10 pmol of dengue-specific primers and 5 pmol dengue probe in the reaction mixture from Superscript Ill Platinum One-Step Quantitative RT-PCR Kit (Invitrogen, Thermo Fisher Scientific), consisting of 0.5 µl Superscript III RT/Platinum mix, 12.5 µl 2× reaction mix and 0.05 µl ROX reference dye. The one-step RT–qPCR comprises a 30 min RT step at 50 °C and 2 min of Taq polymerase activation at 94 °C, followed by 40 cycles of PCR at 94 °C for 5 s and 53 °C for 35 s performed in an ABI 7500DX Fast Real Time PCR system. Each assay included positive, negative and non-template controls. The RNA copy number was calculated from a standard curve of tenfold serial dilutions made from RNA in vitro transcripts consisting of DENV-1 with known copy numbers. The LLOQ was 100 genomic copies per reaction.\nThis sample size was sufficient to detect a significant difference in the number of infected animals in each of the groups as low as 83%. […] Sample processing and conducting of assays was performed by laboratory technicians not involved in the treatment/manipulation of the animals.",
  "data": [
    {"smiles": "COc1cc(N[C@H](C(=O)c2c[nH]c3ccc(OC(F)(F)F)cc23)c2ccc(Cl)cc2OC)cc(S(C)(=O)=O)c1", "note": "[JNJ-1802]", "values": [
      {"measurement": "DENV RNA", "setting": "6 mg per kg per day q.d.", "result": "remained undetectable during the complete study period"},
      {"measurement": "qRT-PCR Assay Result", "setting": "animal R7, Day 0", "result": "Negative"},
      {"measurement": "qRT-PCR Assay Average GE/mL", "setting": "animal R7, Day 0", "result": "0.00E+00", "unit": "GE/mL"},
      {"measurement": "qRT-PCR Assay Result", "setting": "animal R7, Day 1", "result": "Negative"},
      {"measurement": "qRT-PCR Assay Average GE/mL", "setting": "animal R7, Day 1", "result": "0.00E+00", "unit": "GE/mL"},
      {"measurement": "qRT-PCR Assay Result", "setting": "animal R7, Day 2", "result": "Negative"},
      {"measurement": "qRT-PCR Assay Average GE/mL", "setting": "animal R7, Day 2", "result": "0.00E+00", "unit": "GE/mL"},
      {"measurement": "qRT-PCR Assay Result", "setting": "animal R7, Day 3", "result": "Negative"},
      {"measurement": "qRT-PCR Assay Average GE/mL", "setting": "animal R7, Day 3", "result": "0.00E+00", "unit": "GE/mL"},
      {"measurement": "qRT-PCR Assay Result", "setting": "animal R7, Day 4", "result": "Negative"},
      {"measurement": "qRT-PCR Assay Average GE/mL", "setting": "animal R7, Day 4", "result": "0.00E+00", "unit": "GE/mL"},
      {"measurement": "qRT-PCR Assay Result", "setting": "animal R7, Day 5", "result": "Negative"},
      {"measurement": "qRT-PCR Assay Average GE/mL", "setting": "animal R7, Day 5", "result": "0.00E+00", "unit": "GE/mL"},
      {"measurement": "qRT-PCR Assay Result", "setting": "animal R7, Day 6", "result": "Negative"},
      {"measurement": "qRT-PCR Assay Average GE/mL", "setting": "animal R7, Day 6", "result": "0.00E+00", "unit": "GE/mL"},
      {"measurement": "qRT-PCR Assay Result", "setting": "animal R7, Day 7", "result": "Negative"},
      {"measurement": "qRT-PCR Assay Average GE/mL", "setting": "animal R7, Day 7", "result": "0.00E+00", "unit": "GE/mL"},
      {"measurement": "qRT-PCR Assay Result", "setting": "animal R7, Day 8", "result": "Negative"},
      {"measurement": "qRT-PCR Assay Average GE/mL", "setting": "animal R7, Day 8", "result": "0.00E+00", "unit": "GE/mL"},
      {"measurement": "qRT-PCR Assay Result", "setting": "animal R7, Day 9", "result": "Negative"},
      {"measurement": "qRT-PCR Assay Average GE/mL", "setting": "animal R7, Day 9", "result": "0.00E+00", "unit": "GE/mL"},
      {"measurement": "qRT-PCR Assay Result", "setting": "animal R7, Day 10", "result": "Negative"},
      {"measurement": "qRT-PCR Assay Average GE/mL", "setting": "animal R7, Day 10", "result": "0.00E+00", "unit": "GE/mL"},
      {"measurement": "qRT-PCR Assay Result", "setting": "animal R7, Day 11", "result": "Negative"},
      {"measurement": "qRT-PCR Assay Average GE/mL", "setting": "animal R7, Day 11", "result": "0.00E+00", "unit": "GE/mL"},
      {"measurement": "qRT-PCR Assay Result", "setting": "animal R7, Day 14", "result": "Negative"},
      {"measurement": "qRT-PCR Assay Average GE/mL", "setting": "animal R7, Day 14", "result": "0.00E+00", "unit": "GE/mL"},
      {"measurement": "qRT-PCR Assay Result", "setting": "animal R7, Day 29", "result": "Negative"},
      {"measurement": "qRT-PCR Assay Average GE/mL", "setting": "animal R7, Day 29", "result": "0.00E+00", "unit": "GE/mL"},
      {"measurement": "qRT-PCR Assay Result", "setting": "animal R8, Day 0", "result": "Negative"},
      {"measurement": "qRT-PCR Assay Average GE/mL", "setting": "animal R8, Day 0", "result": "0.00E+00", "unit": "GE/mL"},
      {"measurement": "qRT-PCR Assay Result", "setting": "animal R8, Day 1", "result": "Negative"},
      {"measurement": "qRT-PCR Assay Average GE/mL", "setting": "animal R8, Day 1", "result": "0.00E+00", "unit": "GE/mL"},
      {"measurement": "qRT-PCR Assay Result", "setting": "animal R8, Day 2", "result": "Negative"},
      {"measurement": "qRT-PCR Assay Average GE/mL", "setting": "animal R8, Day 2", "result": "0.00E+00", "unit": "GE/mL"},
      {"measurement": "qRT-PCR Assay Result", "setting": "animal R8, Day 3", "result": "Negative"},
      {"measurement": "qRT-PCR Assay Average GE/mL", "setting": "animal R8, Day 3", "result": "0.00E+00", "unit": "GE/mL"},
      {"measurement": "qRT-PCR Assay Result", "setting": "animal R8, Day 4", "result": "Negative"},
      {"measurement": "qRT-PCR Assay Average GE/mL", "setting": "animal R8, Day 4", "result": "0.00E+00", "unit": "GE/mL"},
      {"measurement": "qRT-PCR Assay Result", "setting": "animal R8, Day 5", "result": "Negative"},
      {"measurement": "qRT-PCR Assay Average GE/mL", "setting": "animal R8, Day 5", "result": "0.00E+00", "unit": "GE/mL"},
      {"measurement": "qRT-PCR Assay Result", "setting": "animal R8, Day 6", "result": "Negative"},
      {"measurement": "qRT-PCR Assay Average GE/mL", "setting": "animal R8, Day 6", "result": "0.00E+00", "unit": "GE/mL"},
      {"measurement": "qRT-PCR Assay Result", "setting": "animal R8, Day 7", "result": "Negative"},
      {"measurement": "qRT-PCR Assay Average GE/mL", "setting": "animal R8, Day 7", "result": "0.00E+00", "unit": "GE/mL"},
      {"measurement": "qRT-PCR Assay Result", "setting": "animal R8, Day 8", "result": "Negative"},
      {"measurement": "qRT-PCR Assay Average GE/mL", "setting": "animal R8, Day 8", "result": "0.00E+00", "unit": "GE/mL"},
      {"measurement": "qRT-PCR Assay Result", "setting": "animal R8, Day 9", "result": "Negative"},
      {"measurement": "qRT-PCR Assay Average GE/mL", "setting": "animal R8, Day 9", "result": "0.00E+00", "unit": "GE/mL"},
      {"measurement": "qRT-PCR Assay Result", "setting": "animal R8, Day 10", "result": "Negative"},
      {"measurement": "qRT-PCR Assay Average GE/mL", "setting": "animal R8, Day 10", "result": "0.00E+00", "unit": "GE/mL"},
      {"measurement": "qRT-PCR Assay Result", "setting": "animal R8, Day 11", "result": "Negative"},
      {"measurement": "qRT-PCR Assay Average GE/mL", "setting": "animal R8, Day 11", "result": "0.00E+00", "unit": "GE/mL"},
      {"measurement": "qRT-PCR Assay Result", "setting": "animal R8, Day 14", "result": "Negative"},
      {"measurement": "qRT-PCR Assay Average GE/mL", "setting": "animal R8, Day 14", "result": "0.00E+00", "unit": "GE/mL"},
      {"measurement": "qRT-PCR Assay Result", "setting": "animal R8, Day 29", "result": "Negative"},
      {"measurement": "qRT-PCR Assay Average GE/mL", "setting": "animal R8, Day 29", "result": "0.00E+00", "unit": "GE/mL"},
      {"measurement": "qRT-PCR Assay Result", "setting": "animal R9, Day 0", "result": "Negative"},
      {"measurement": "qRT-PCR Assay Average GE/mL", "setting": "animal R9, Day 0", "result": "0.00E+00", "unit": "GE/mL"},
      {"measurement": "qRT-PCR Assay Result", "setting": "animal R9, Day 1", "result": "Negative"},
      {"measurement": "qRT-PCR Assay Average GE/mL", "setting": "animal R9, Day 1", "result": "0.00E+00", "unit": "GE/mL"},
      {"measurement": "qRT-PCR Assay Result", "setting": "animal R9, Day 2", "result": "Negative"},
      {"measurement": "qRT-PCR Assay Average GE/mL", "setting": "animal R9, Day 2", "result": "0.00E+00", "unit": "GE/mL"},
      {"measurement": "qRT-PCR Assay Result", "setting": "animal R9, Day 3", "result": "Negative"},
      {"measurement": "qRT-PCR Assay Average GE/mL", "setting": "animal R9, Day 3", "result": "0.00E+00", "unit": "GE/mL"},
      {"measurement": "qRT-PCR Assay Result", "setting": "animal R9, Day 4", "result": "Negative"},
      {"measurement": "qRT-PCR Assay Average GE/mL", "setting": "animal R9, Day 4", "result": "0.00E+00", "unit": "GE/mL"},
      {"measurement": "qRT-PCR Assay Result", "setting": "animal R9, Day 5", "result": "Negative"},
      {"measurement": "qRT-PCR Assay Average GE/mL", "setting": "animal R9, Day 5", "result": "0.00E+00", "unit": "GE/mL"},
      {"measurement": "qRT-PCR Assay Result", "setting": "animal R9, Day 6", "result": "Negative"},
      {"measurement": "qRT-PCR Assay Average GE/mL", "setting": "animal R9, Day 6", "result": "0.00E+00", "unit": "GE/mL"},
      {"measurement": "qRT-PCR Assay Result", "setting": "animal R9, Day 7", "result": "Negative"},
      {"measurement": "qRT-PCR Assay Average GE/mL", "setting": "animal R9, Day 7", "result": "0.00E+00", "unit": "GE/mL"},
      {"measurement": "qRT-PCR Assay Result", "setting": "animal R9, Day 8", "result": "Negative"},
      {"measurement": "qRT-PCR Assay Average GE/mL", "setting": "animal R9, Day 8", "result": "0.00E+00", "unit": "GE/mL"},
      {"measurement": "qRT-PCR Assay Result", "setting": "animal R9, Day 9", "result": "Negative"},
      {"measurement": "qRT-PCR Assay Average GE/mL", "setting": "animal R9, Day 9", "result": "0.00E+00", "unit": "GE/mL"},
      {"measurement": "qRT-PCR Assay Result", "setting": "animal R9, Day 10", "result": "Negative"},
      {"measurement": "qRT-PCR Assay Average GE/mL", "setting": "animal R9, Day 10", "result": "0.00E+00", "unit": "GE/mL"},
      {"measurement": "qRT-PCR Assay Result", "setting": "animal R9, Day 11", "result": "Negative"},
      {"measurement": "qRT-PCR Assay Average GE/mL", "setting": "animal R9, Day 11", "result": "0.00E+00", "unit": "GE/mL"},
      {"measurement": "qRT-PCR Assay Result", "setting": "animal R9, Day 14", "result": "Negative"},
      {"measurement": "qRT-PCR Assay Average GE/mL", "setting": "animal R9, Day 14", "result": "0.00E+00", "unit": "GE/mL"},
      {"measurement": "qRT-PCR Assay Result", "setting": "animal R9, Day 29", "result": "Negative"}
    ]}
  ]
}
